In patent publication US20100172854A1, “ANTIBACTERIAL FORMULATIONS” (priority 2007, published 2010):
In brackets after ≈: the same amount, converted by molar mass.

Tests used:
[1] = tested on: Streptococcus pyogenes ATCC 12344; assay: MIC assay; format: cell-based; details: ATCC12344; Streptococcus pyogenes ATCC 12344
Description: (§1) This is a standard international method for quantitatively assessing the antimicrobial activity of a compound in a liquid medium. The method used a sterile 96-well microtitre plate, capable of holding about 200 μl of liquid per well. The wells contained liquid culture medium and ranges of decreasing concentrations of the relevant test compound in doubling dilutions (e.g. 1000, 500, 250, 125 . . . μg/ml, etc. down to 0.49 μg/ml). The culture media were as described above.
(§2) The wells were inoculated with a liquid suspension of freshly grown micro-organism and incubated under the conditions described above. After incubation, the microtitre plate was examined visually (with the aid of a light box) for cloudiness in each well, which would indicate microbial growth. The MIC value was recorded as the lowest concentration of test compound required to inhibit microbial growth, i.e. the lowest concentration for which the liquid in the well remained clear.
(§3) The assays included both negative (culture medium with no micro-organisms) and positive (culture medium plus diluting solvent plus micro-organism) controls.

[2] = tested on: Bacillus cereus ATCC 11778; assay: MIC assay; format: cell-based
Description: as §1, §2, §3

[3] = tested on: Gardnerella vaginalis ATCC 14018; assay: MIC assay; format: cell-based; details: ATCC14018
Description: as §1, §2, §3

[4] = tested on: Enterococcus faecalis ATCC 29212; assay: MIC assay; format: cell-based; details: Enterococcus faecalis, ATCC29212
Description: as §1, §2, §3

[5] = tested on: Corynebacterium mucifaciens ATCC 700355; assay: MIC assay; format: cell-based; details: Corynebacterium mucifaciens, ATCC700355
Description: as §1, §2, §3

[6] = tested on: Clostridium difficile ATCC 7000057; assay: MIC assay; format: cell-based; details: Clostridioides difficile, ATCC7000057
Description: as §1, §2, §3

[7] = tested on: Actinomyces naeslundii ATCC 12104; assay: MIC assay; format: cell-based
Description: as §1, §2, §3

[8] = tested on: Listeria monocytogenes ATCC 15313; assay: MIC assay; format: cell-based
Description: as §1, §2, §3

[9] = tested on: Prevotella nigrescens ATCC 33563; assay: MIC assay; format: cell-based; details: ATCC33563
Description: as §1, §2, §3

[10] = tested on: Clostridium sporogenes ATCC 3584; assay: MIC assay; format: cell-based; details: ATCC3584
Description: as §1, §2, §3

[11] = tested on: Streptococcus sobrinus ATCC 33478; assay: MIC assay; format: cell-based; details: ATCC33478
Description: as §1, §2, §3

tumour = details: compound isolated from Aspergillus fumigatus, believed to be Antioxidant 2246; cited from earlier work
[12] = tested on: Propionibacterium acnes NCTC 737; assay: MBC assay; format: cell-based; details: P. acnes NCTC 737
Description: The propionibacteria were cultured and maintained on Wilkins-Chalgren Anaerobe Medium (agar and broth) at pH 6.0; all cultures were incubated anaerobically at 37° C. for 72 hours.
(§4) This assay, normally carried out after an MIC assay, determines the minimum concentration of a compound that is lethal to the micro-organism being tested.
(§5) These samples were then individually sub-cultured on antibiotic-free agar medium, under the incubation conditions described above. Following incubation they were examined visually for microbial growth.

[13] = tested on: Streptococcus mutans ATCC 25175; assay: MIC assay; format: cell-based; details: ATCC25175
Description: (§6) The S. mutans strains were cultured and maintained on Wilkins-Chalgren Anaerobe Medium (agar and broth) at pH 7.0 supplemented with 1 g/L glucose; all cultures were incubated at 37° C. for 48 h in an atmosphere containing 5% CO2.
as §1, §2, §3

[14] = tested on: Streptococcus mutans ATCC 35668; assay: MIC assay; format: cell-based; details: ATCC35668
Description: as §6, §1, §2, §3

[15] = tested on: Streptococcus pyogenes ATCC 12344; assay: MBC assay; format: cell-based
Description: as §4, §5

[16] = tested on: Bacillus cereus ATCC 11778; assay: MBC assay; format: cell-based
Description: as §4, §5

[17] = tested on: Gardnerella vaginalis ATCC 14018; assay: MBC assay; format: cell-based
Description: as §4, §5

[18] = tested on: Enterococcus faecalis ATCC 29212; assay: MBC assay; format: cell-based; details: ATCC29212
Description: as §4, §5

[19] = tested on: Corynebacterium mucifaciens ATCC 700355; assay: MBC assay; format: cell-based; details: ATCC700355
Description: as §4, §5

[20] = tested on: Clostridium difficile ATCC 7000057; assay: MBC assay; format: cell-based
Description: as §4, §5

[21] = tested on: Actinomyces naeslundii ATCC 12104; assay: MBC assay; format: cell-based
Description: as §4, §5

[22] = tested on: Listeria monocytogenes ATCC 15313; assay: MBC assay; format: cell-based
Description: as §4, §5

[23] = tested on: Prevotella nigrescens ATCC 33563; assay: MBC assay; format: cell-based
Description: as §4, §5

[24] = tested on: Clostridium sporogenes ATCC 3584; assay: MBC assay; format: cell-based
Description: as §4, §5

[25] = tested on: Streptococcus sobrinus ATCC 33478; assay: MBC assay; format: cell-based
Description: as §4, §5

Cc1cc(Cc2cc(C)cc(C(C)(C)C)c2O)c(O)c(C(C)(C)C)c1 [AO 2246, 2,2′-methylene-bis(4-methyl-6-tert-butylphenol)]
MIC [1]: 0.98 µg/mL (≈ 2.88 µM) | MIC [2]: 1.95 µg/mL (≈ 5.73 µM) | MIC [3]: 15.6 µg/mL (≈ 45.8 µM) | MIC [4]: 1.95 µg/mL (≈ 5.73 µM) | MIC [5]: 1.95 µg/mL (≈ 5.73 µM) | MIC [6]: 3.9 µg/mL (≈ 11.5 µM) | MIC [7]: 1.95 µg/mL (≈ 5.73 µM) | MIC [8]: 1.95 µg/mL (≈ 5.73 µM) | MIC [9]: 7.8 µg/mL (≈ 22.9 µM) | MIC [10]: 3.9 µg/mL (≈ 11.5 µM) | MIC [11]: 15.6 µg/mL (≈ 45.8 µM) | anti-tumour activity (tumour): anti-tumour activity | MBC ([12]; Cutibacterium acnes, NCTC737): 15.6 µg/mL (≈ 45.8 µM) | MIC/MBC Ratio [12]: 0.25 | MIC [13]: 15.6 µg/mL (≈ 45.8 µM) | MIC [14]: 7.8 µg/mL (≈ 22.9 µM) | MIC/MBC Ratio [15]: 1 | MBC ([15]; ATCC12344): 0.98 µg/mL (≈ 2.88 µM) | MIC/MBC Ratio [16]: 0.5 | MBC ([16]; ATCC11778): 3.9 µg/mL (≈ 11.5 µM) | MIC/MBC Ratio [17]: 1 | MBC ([17]; ATCC14018): 15.6 µg/mL (≈ 45.8 µM) | MBC ([18]; Enterococcus faecalis ATCC 29212): 7.8 µg/mL (≈ 22.9 µM) | MIC/MBC Ratio ([18]; Enterococcus faecalis): 0.25 | MBC ([19]; Corynebacterium mucifaciens ATCC 700355): 3.9 µg/mL (≈ 11.5 µM) | MIC/MBC Ratio ([19]; Corynebacterium mucifaciens): 0.5 | MIC/MBC Ratio [20]: 1 | MBC ([20]; Clostridioides difficile, ATCC7000057): 3.9 µg/mL (≈ 11.5 µM) | MIC/MBC Ratio [21]: 0.5 | MBC ([21]; ATCC12104): 3.9 µg/mL (≈ 11.5 µM) | MIC/MBC Ratio [22]: 0.25 | MBC ([22]; ATCC15313): 7.8 µg/mL (≈ 22.9 µM) | MIC/MBC Ratio [23]: <0.5 | MBC ([23]; ATCC33563): > 15.6 µg/mL | MIC/MBC Ratio [24]: 0.125 | MBC ([24]; ATCC3584): 31.2 µg/mL (≈ 91.8 µM) | MIC/MBC Ratio [25]: 0.5 | MBC ([25]; ATCC33478): 31.2 µg/mL (≈ 91.8 µM)
